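Five concentrations, 48 hours, 96-well plates. GI50: concentration for 50% inhibition of growth. The concentration for full growth arrest is given as TGI.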
Key:
Experiment in all cases: NCI-60 cell line screen, 48 h
A498 renal = tested on: A498 renal
A549 NSCLC = tested on: A549 NSCLC
ACHN renal = tested on: ACHN renal
HCT-15 colon = tested on: HCT-15 colon
KM12 colon = tested on: KM12 colon
NCI-H226 lung = tested on: NCI-H226 lung
SF-539 CNS = tested on: SF-539 CNS
DU-145 prostate = tested on: DU-145 prostate
HS 578T breast = tested on: HS 578T breast
MDA-MB-231 breast = tested on: MDA-MB-231 breast

Row | SMILES | TGI (A498 renal) [µM] | TGI (A549 NSCLC) [µM] | TGI (ACHN renal) [µM] | TGI (HCT-15 colon) [µM] | TGI (KM12 colon) [µM] | TGI (NCI-H226 lung) [µM] | TGI (SF-539 CNS) [µM] | TGI (DU-145 prostate) [µM] | TGI (HS 578T breast) [µM] | TGI (MDA-MB-231 breast) [µM] | GI50 (A549 NSCLC) [µM] | GI50 (A498 renal) [µM] | GI50 (ACHN renal) [µM] | GI50 (DU-145 prostate) [µM] | GI50 (HCT-15 colon) [µM] | GI50 (HS 578T breast) [µM] | GI50 (KM12 colon) [µM] | GI50 (MDA-MB-231 breast) [µM] | GI50 (NCI-H226 lung) [µM] | GI50 (SF-539 CNS) [µM]
1 | Cc1ccccc1NC(=O)C(=O)C(c1cnc2ccc([N+](=O)[O-])cc2n1)[N+](=O)[O-] (centres undefined) | > 100 | > 100 | > 100 | > 100 | > 100 | > 100 | > 100 | – | – | – | – | – | – | – | – | – | – | – | – | –
2 | COc1ccc(NC(=O)C(=O)C2CNC(=O)NC2=O)c(OC)c1 (centres undefined) | – | > 100 | > 100 | > 100 | > 100 | > 100 | > 100 | – | – | – | – | – | – | – | – | – | – | – | – | –
3 | COc1ccc(-c2cc(=O)c3c(OC)c(OC)c(OC)c(OC)c3o2)cc1OC | > 100 | > 100 | > 100 | > 100 | – | > 100 | > 100 | > 100 | 95.3 | > 100 | – | – | – | – | – | – | – | – | – | –
4 | CN(C)C(=O)/N=c1\ss/c(=N\C(=S)N(C)C)n1-c1ccccc1 | > 100 | > 100 | > 100 | > 100 | > 100 | > 100 | > 78.4 | – | – | – | 0.0483 | – | – | – | – | – | – | – | – | –
5 | NC(=O)N/N=C(\C(=O)C(=O)Nc1ccc(Cl)c(C(F)(F)F)c1)c1nc2ccc(C(=O)c3ccccc3)cc2[nH]c1=O | > 100 | > 100 | > 100 | > 100 | > 100 | > 100 | > 100 | – | – | – | – | – | – | – | – | – | – | – | – | –
6 | CCCCCCCC/C=C/CCCCCCCC1=NC(C)(C)CN1C(C)C | 5.21 | – | 3.01 | 2.9 | 2.97 | 4.52 | 2.87 | 2.99 | 3.56 | 2.97 | – | 2.04 | 1.65 | 1.63 | 1.51 | 1.55 | 1.62 | 1.59 | 1.75 | 1.53
7 | Nc1ncnc(NC2C=C(CO)C(O)C2O)c1[N+](=O)[O-] (centres undefined) | > 100 | > 100 | > 100 | > 100 | > 100 | > 100 | > 100 | – | – | – | – | – | – | – | – | – | – | – | – | –
8 | C=C[C@]1(C)CCC2=C(CCC3C2(C)CCC[C@]3(C)CO)C1 (some centres undefined) | > 100 | > 100 | > 100 | > 100 | > 100 | > 100 | > 100 | – | – | – | – | – | – | – | – | – | – | – | – | –
9 | COC(=O)C(C(=O)C(=O)NC1=C(Cl)C(=O)c2ccccc2C1=O)c1csc(-n2nc(-c3ccccc3)cc2-c2ccccc2)n1 (centres undefined) | > 100 | > 100 | > 100 | > 100 | > 100 | > 100 | – | – | – | – | – | – | – | – | – | – | – | – | – | –
10 | CC#CS(=O)(=O)c1ccccc1 | 29.3 | 31.4 | 12.8 | 9.4 | – | 24.1 | 15.5 | 10.2 | 41.8 | 22.8 | – | – | – | – | – | – | – | – | – | –
11 | Oc1ccc(CNCc2ccccc2)c2cccnc12 | > 100 | > 100 | 22.9 | > 100 | > 100 | 66.7 | – | 38.4 | > 100 | – | – | – | – | – | – | – | – | – | – | –
12 | COC(=O)/C(C#N)=C1\CCC(O)N1C (centres undefined) | – | > 100 | > 100 | – | > 100 | > 100 | > 100 | – | – | – | – | – | – | – | – | – | – | – | – | –
13 | COC(=O)C(=O)C(C(=O)C(=O)Nc1ccc(Cl)cc1C)c1nc2ccc(C(=O)c3ccccc3)cc2[nH]c1=O (centres undefined) | > 100 | > 100 | > 100 | > 100 | > 100 | > 100 | > 100 | – | – | – | – | – | – | – | – | – | – | – | – | –
